Test results taken from the NIST ThermoML archive (doi:10.1016/j.jct.2015.07.048).
Numbers after ± are expanded uncertainties.

How the values were obtained:
[1] = Liquid; for viscosity / electrical conductivity: 100 kPa; for viscosity: Cone and plate viscometry; for electrical conductivity: Direct current cell with electrodes; for mass density: 101.33 kPa, Vibrating tube method
[2] = xn = mol fraction of the nth substance listed; details: 100 kPa, Liquid, x2 = 0; for viscosity: Cone and plate viscometry; for mass density: Vibrating tube method

SMILES: CCCn1cc[n+](C)c1.O=S(=O)([N-]S(=O)(=O)C(F)(F)F)C(F)(F)F
- viscosity ([1]; 293.15 K): 54.19 ± 1.1 mPa·s
- electrical conductivity ([1]; 293.15 K): 0.355 ± 0.011 S/m
- mass density ([1]; 293.15 K): 1479.32 ± 1.6 kg/m3
- viscosity ([1]; 298.15 K): 43.94 ± 0.9 mPa·s
- electrical conductivity ([1]; 298.15 K): 0.435 ± 0.013 S/m
- mass density ([1]; 298.15 K): 1474.24 ± 1.6 kg/m3
- viscosity ([1]; 303.15 K): 35.92 ± 0.74 mPa·s
- electrical conductivity ([1]; 303.15 K): 0.521 ± 0.016 S/m
- mass density ([1]; 303.15 K): 1469.4 ± 1.6 kg/m3
- viscosity ([1]; 308.15 K): 30 ± 0.62 mPa·s
- electrical conductivity ([1]; 308.15 K): 0.611 ± 0.018 S/m
- mass density ([1]; 308.15 K): 1464.43 ± 1.6 kg/m3
- viscosity ([1]; 313.15 K): 25.32 ± 0.52 mPa·s
- electrical conductivity ([1]; 313.15 K): 0.71 ± 0.021 S/m
- mass density ([1]; 313.15 K): 1459.44 ± 1.6 kg/m3
- viscosity ([1]; 318.15 K): 21.58 ± 0.44 mPa·s
- electrical conductivity ([1]; 318.15 K): 0.813 ± 0.024 S/m
- mass density ([1]; 318.15 K): 1454.63 ± 1.6 kg/m3
- viscosity ([1]; 323.15 K): 18.82 ± 0.39 mPa·s
- electrical conductivity ([1]; 323.15 K): 0.923 ± 0.028 S/m
- mass density ([1]; 323.15 K): 1449.73 ± 1.6 kg/m3

SMILES: O=C1CCCO1 [γ-butyrolactone] + CCCn1cc[n+](C)c1.O=S(=O)([N-]S(=O)(=O)C(F)(F)F)C(F)(F)F
- viscosity ([2]; 293.15 K): 1.92 ± 0.04 mPa·s
- mass density ([2]; 293.15 K): 1129.2 ± 1.6 kg/m3
- viscosity ([2]; 298.15 K): 1.73 ± 0.04 mPa·s
- mass density ([2]; 298.15 K): 1124.26 ± 1.6 kg/m3
- viscosity ([2]; 303.15 K): 1.63 ± 0.04 mPa·s
- mass density ([2]; 303.15 K): 1119.33 ± 1.6 kg/m3
- viscosity ([2]; 308.15 K): 1.52 ± 0.03 mPa·s
- mass density ([2]; 308.15 K): 1114.31 ± 1.6 kg/m3
- viscosity ([2]; 313.15 K): 1.42 ± 0.03 mPa·s
- mass density ([2]; 313.15 K): 1109.23 ± 1.6 kg/m3
- viscosity ([2]; 318.15 K): 1.35 ± 0.03 mPa·s
- mass density ([2]; 318.15 K): 1104.1 ± 1.6 kg/m3
- viscosity ([2]; 323.15 K): 1.3 ± 0.03 mPa·s
- mass density ([2]; 323.15 K): 1098.88 ± 1.6 kg/m3
